Assay results from ChEMBL document CHEMBL6074679, “Diastereoselective synthesis and biological evaluation of new fluorine-containing α-aminophosphonates as anticancer agents and scaffold to human urokinase plasminogen activator inhibitors” (Eur J Med Chem, 2025).

What was measured:
U-251 = experiment: Cytotoxicity against human U-251MG cells incubated for 48 hrs by MTT assay; assay type: functional, cell-based; details: U-251, 48 h
Caco-2 = experiment: Cytotoxicity against human Caco-2 cells incubated for 48 hrs by MTT assay; assay type: functional, cell-based; details: Caco-2, 48 h
HepG2 = experiment: Cytotoxicity against human HepG2 cells incubated for 48 hrs by MTT assay; assay type: functional, cell-based; details: HepG2, 48 h
A549 = experiment: Cytotoxicity against human A549 cells incubated for 48 hrs by MTT assay; assay type: functional, cell-based; details: A549, 48 h
U-87 MG = experiment: Cytotoxicity against human U-87 MG cells incubated for 48 hrs by MTT assay; assay type: functional, cell-based, U-87MG ATCC
SK-OV-3 = experiment: Cytotoxicity against human SK-OV-3 cells incubated for 48 hrs by MTT assay; assay type: functional, cell-based; details: SK-OV-3, 48 h
U-118-MG = experiment: Cytotoxicity against human U-118 MG cells incubated for 48 hrs by MTT assay; assay type: functional, cell-based
[1] = Cytotoxicity against human MRC5 cells incubated for 48 hrs by MTT assay; assay type: toxicity, cell-based
OVCAR-3 = experiment: Cytotoxicity against human OVCAR-3 cells incubated for 48 hrs by MTT assay; assay type: functional, cell-based; details: OVCAR-3, 48 h
HeLa = experiment: Cytotoxicity against human HeLa cells incubated for 48 hrs by MTT assay; assay type: functional, cell-based
MDA-MB-231 = experiment: Cytotoxicity against human MDA-MB-231 cells incubated for 48 hrs by MTT assay; assay type: functional, cell-based; details: MDA-MB-231, 48 h
[2] = target: Urokinase-type plasminogen activator (Homo sapiens, UniProt P00749); experiment: Inhibition of human urokinase uPA using Z-Gly-Gly-Arg-AMC as substrate by fluorescence plate reader assay

Row | IC50 [2] [µM] | Structure (SMILES) | IC50 (U-251) [µM] | IC50 (Caco-2) [µM] | IC50 (HepG2) [µM] | IC50 (A549) [µM] | IC50 (U-87 MG) [µM] | IC50 (SK-OV-3) [µM] | IC50 (U-118-MG) [µM] | IC50 at 48 h [1] [µM] | IC50 (OVCAR-3) [µM] | IC50 (HeLa) [µM] | IC50 (MDA-MB-231) [µM]
1 |  | COc1ccc([C@@H](C)NC(c2c(F)cc(F)cc2F)P(=O)(OC)OC)cc1 (some centres not stated) | 47.8 | 14.6 | 13.2 | 33.2 | 22.6 | 4.2 | 70 | 5.86 | 78.6 | 17.5 | 27
2 |  | CCOP(=O)(OCC)C(N[C@H](C)c1ccccc1)c1ccc(F)cc1F (some centres not stated) | 5.59 | 2.24 | 117 | 35.4 | 7.68 | 3.24 | 34.6 | 16.6 | 5.56 | 4.11 | 11.6
3 | 720 | COP(=O)(OC)C(N[C@@H](C)C(C)(C)C)c1c(F)cc(F)cc1F (some centres not stated) | 144 | 72.3 | 92.1 | 48.6 | 61.1 | 7.08 | 122 | 15 | 13.7 | 4.14 | 83
4 |  | CC(C)OP(=O)(OC(C)C)C(N[C@@H](C)C(C)(C)C)c1ccc(F)cc1F (some centres not stated) | 3.97 | 10.5 | 23.6 | 72 | 7.78 | 8.63 | 150 | 47.8 | 194 | 5.37 | 9.89
5 | 357 | COc1ccc([C@@H](C)NC(c2c(F)c(F)c(F)c(F)c2F)P(=O)(OC)OC)cc1 (some centres not stated) | 53.1 | 6.93 | 35.5 | 75.1 | 45.1 | 4.36 | 31.4 | 2.17 | 13.7 | 52.4 | 79.2
6 |  | COP(=O)(OC)C(NC(C)C(C)(C)C)c1ccc(F)cc1 (racemic) | 16.5 | 16.1 | 5.57 | 7.95 | 39.8 | 8.75 | 45.8 | 90.7 | 104 | 6.28 | 230
7 |  | CCOP(=O)(OCC)C(N[C@@H](C)C(C)(C)C)c1ccc(F)cc1 (some centres not stated) | 24.4 | 51.4 | 34.5 | 49.2 | 11 | 15.3 | 64.2 | 13.8 | 71.6 | 13 | 59.3
8 | 671 | CCOP(=O)(OCC)C(N[C@@H](C)C(C)(C)C)c1c(F)cc(F)cc1F (some centres not stated) | 7.57 | 0.39 | 46.7 | 33.3 | 11.5 | 16.6 | 40.7 | 36.5 | 55.1 | 10.6 | 39.3
9 | 620 | COc1ccc([C@@H](C)NC(c2ccc(F)cc2F)P(=O)(OC(C)C)OC(C)C)cc1 (some centres not stated) | 3.51 | 0.72 | 46.2 | 2.87 | 3.72 | 9.35 | 67.6 | 1.82 | 3.57 | 5.07 | 80.9
10 | 114 | COc1ccc([C@@H](C)NC(c2ccccc2F)P(=O)(OC)OC)cc1 (some centres not stated) | 8.7 | 1.3 | 72.6 | 43.3 | 9.24 | 338 | > 500 | 29.1 | 15.7 | 5.18 | 167
11 |  | COP(=O)(OC)C(N[C@H](C)c1ccccc1)c1c(F)c(F)c(F)c(F)c1F (some centres not stated) | 34.1 | 6.02 | 55.1 | 49.6 | 5.45 | 28.2 | 51.2 | 84.1 | 13 | 4.09 | 94.3
12 |  | CCOP(=O)(OCC)C(N[C@@H](C)C(C)(C)C)c1ccc(F)cc1F (some centres not stated) | 48.6 | 27.4 | 18.4 | 18 | 10.5 | 110 | 35.5 | 107 | 48.3 | 4.46 | 5.58
13 |  | COP(=O)(OC)C(N[C@@H](C)C(C)(C)C)c1ccccc1F (some centres not stated) | 8.95 | 1.3 | 59.6 | 55.1 | 3.27 | 21.9 | 81.2 | 34.4 | 51.7 | 21.4 | 160
14 | 147 | COc1ccc([C@@H](C)NC(c2ccc(F)cc2F)P(=O)(OC)OC)cc1 (some centres not stated) | 19 | 28.5 | 58.5 | 53.1 | 9.92 | 3.71 | 183 | 10.6 | 100 | 2.54 | 11
15 | 516 | COP(=O)(OC)C(N[C@@H](C)C(C)(C)C)c1ccc(F)cc1 (some centres not stated) | 21 | 18.5 | 6.73 | 9.82 | 36.3 | 6.77 | 38.3 | 110 | 81.6 | 6.07 | 190
16 |  | O=c1[nH]c(=O)n([C@H]2C[C@H](O)[C@@H](CO)O2)cc1F [FLOXURIDINE] | 17.8 |  | 37.9 | 22.8 | 18.5 | 12.8 |  |  | 24.5 |  | 5.65
17 | 416 | CCOP(=O)(OCC)C(N[C@H](C)c1ccc(OC)cc1)c1c(F)c(F)c(F)c(F)c1F (some centres not stated) | 78.9 | 1.74 | 45.3 | 44.6 | 9.34 | 5.37 | 14.4 | 27.2 | > 500 | 3.92 | 19.1
18 | 280 | CCOP(=O)(OCC)C(N[C@H](C)c1ccc(OC)cc1)c1ccc(F)cc1F (some centres not stated) | 53.2 | 47.4 | 7.79 | 21.6 | 59.2 | 1.63 | 43.6 | 4.71 | 0.64 | 32.4 | 156
19 |  | COP(=O)(OC)C(N[C@@H](C)C(C)(C)C)c1ccc(F)cc1F (some centres not stated) | 119 | 6.44 | 59.5 | 1.82 | 40.7 | 131 | 87.7 | 82.2 | 66.3 | 9.85 | 165
20 |  | COP(=O)(OC)C(N[C@H](C)c1ccccc1)c1ccc(F)cc1F (some centres not stated) | 110 | 8.63 | 47.9 | 5.45 | 57 | 17.4 | 67.7 | 5.24 | 2.47 | 5.35 | 170
21 | 493 | COc1ccc([C@@H](C)NC(c2ccc(F)cc2)P(=O)(OC(C)C)OC(C)C)cc1 (some centres not stated) | 27 | 6.47 | 7.74 | 37.7 | 21.7 | 8.41 | 18.2 | 5.9 | 44.3 | 3.18 | 33.8
